Reference: PMC5855875, “Teixobactin analogues reveal enduracididine to be non-essential for highly potent antibacterial activity and lipid II binding” (Chemical Science, 2017)
≈ marks a conversion by molar mass, not a printed value. Like-named read-outs stand apart in the source and are kept apart here.

Key:
VRE 2: VRE ATCC 29212 = assay: organism not typed
Procedure: (§1) VIII. MIC testing (extended panel)
(§2) Bacterial cultures were grown overnight i n Mueller-Hinton Agar (MHA) plates and adjusted to a final concentration of 10 5 – 106 CFU/ml. 100 µl of inoculum in Meuller -Hinton broth (MHB) was mixed with equal volume of peptides (dissolved in MHB) at 2x their concentration in a 96 well plate. In parallel experiments, MIC values were determined in the media containing polysorbate 80 (0 .002%, v/v) to […]
(§3) prevent non-specific adsorption of the peptides to plastic surfaces. The final peptides concentrations […]
(§4) Positive and negative controls contained 200 µl of inoculum without any peptide dissolved in broth, respectively. The 96 well plates were then incubated at 37 °C for 24 h. […]
(§5) 80. Strain information: MRSA 1: MRSA ATCC 700699, MRSA 2: MRSA DR 42412 (sputum), MRSA
(§6) 3: MRSA DM21455 (eye). […] Staphylococcus aureus ATCC

VRE 1: VRE ATCC 700802 = assay: organism not typed
Procedure: as §1, §2, §3, §4, §5, §6

MRSA ATCC 33591 = assay: microbe, parasite or virus in culture; settings: 24 h
Procedure: (§7) were grown in Mueller Hinton broth (Oxoid) in triplicate. All incubations were at 37°C. Dilutions were carried out in triplicate. 100 µl of autoclaved Mueller Hinton broth was added to wells 2-12 in a 96-well plate. 200 µl of the peptide was added to well one at a concentration of 256 µg/mL. 100µl of peptide in well one was taken up and pipetted into well two. The mixture was then mixed via pipetting before 100µl was taken up and pipetted into well three. This process was repeated up to well 11. Once […]
(§8) peptide present. Thus, the concentrations (in µg/mL) were: 256, 128, 64, 32, 16, 8, 4, 2, 1, 0.5, 0.25 and no peptide present. Each well was then inoculated with 100µl of bacteria that had been diluted to an […]
(§9) This was repeated three times. The 96-well plates were then incubated at 37°C for 24 hours. The MIC was determined to be the lowest concentration at which there was no growth visible. […]
(§10) was repeated at an altered initial concentration of 64 µg/ml. Therefore, the new concentrations for MIC […]
as §1, §2

[1] = tested on: MRSA 2: MRSA DR 42412 (sputum); assay: microbe, parasite or virus in culture
Procedure: as §1, §2, §3, §4, §5, §6

[2] = Lipid II TLC binding assay; settings: peptide : lipid II 2 : 1; 50 mM Tris/HCl, pH 7.5, 30 min, room temperature; three independent experiments
Procedure: X. Complex formation of teixobactin with lipid II and geranyl pyrophosphate Complex formation of teixobactin analogues 8 (Ala10-teixobactin) and 16 (Arg10-teixobactin) with lipid II and geranyl pyrophosphate was performed using TLC as described previously.7 Binding of teixobactin to lipid II and geranyl pyrophosphate was analysed by incubating 30 µL of 2 nmol of each precursor with 2 or 4 nmoles of teixobactin in 50 mM Tris/HCl, pH 7.5, for 30 min at room temperature. Complex formation was analysed by extracting unbound precursors from the reaction mixture with 30 µL n- butanol/6M pyridine acetate (pH 4.2) (2:1; vol/vol) followed by TLC analysis of the organic layer using chloroform/methanol/water/ammonia (88:48:10:1, v/v/v/v) as the solvent and detection of lipid/phosphate containing precursors by phosphomolybdic acid staining. The TLC figures represent the results obtained through thr ee independent experiments.
Figure S76 : Binding of teixobactin analogues 8 (Ala10-teixobactin ) and 16 (Arg10-teixobactin) with lipid II using the protocols described in literature .7 Partial binding is observed when the ratio of lipid II to the analogue is 1:1 (indicated by lighter spots on the TLC) and complete binding is observed when the ratio of lipid II to the analogue is 1:2 in case of analogue 16 and 1:4 in case of analogue 8 (indicated […]
(§11) (also on this page, place not known: polyso rbate vancomycin , concentr ation 80 . wer e µ l (10 1-105 10 10 previously n - TL C three S76: (Ala10-teixobactin) literature.7 Lipid II Lipid II: Compound 8 = 1:1 Lipid II: Compound 16 = 1:1 Lipid II: Compound 8 = 1:2 Lipid II: Compound 16 = 1:2 Lipid II: Compound 8 = 1:4)

M. smegmatis ATCC 607 = assay: microbe, parasite or virus in culture
Procedure: as §7, §8, §9, §10
Middlebrook 7H9 broth (SIGMA) supplemented to 5% Middlebrook ADC (SIGMA) growth

[3] = tested on: MRSA 3: MRSA DM21455 (eye); assay: microbe, parasite or virus in culture
Procedure: as §1, §2, §3
(§12) Positive and negative controls contained 200 µl of inoculum without any peptide dissolved in broth, respectively. The 96 well plates were then incubated at 37 °C for 24 h.
(§13) All the experiments were performed in two independent duplicates and the MIC was determined as the […]
(§14) Minimum bactericidal concentration
(§15) The lowest concentration in which no visible colonies could be detected was taken as the MBC.
as §5, §6

MRSA 1: MRSA ATCC 700699 = assay: microbe, parasite or virus in culture
Procedure: as §1, §2, §3, §12, §13, §14, §15, §5, §6

[4] = tested on: Staphylococcus aureus ATCC 29213; assay: microbe, parasite or virus in culture; settings: for MIC: Staphylococcus aureus
Procedure: as §1, §2, §3, §12, §13, §14, §15, §5, §6

MRSA DM21455 = assay: Time-kill kinetics; type: cell-based, Methicillin-resistant Staphylococcus aureus; settings: without polysorbate 80
Procedure: IX. Time-dependent killing of bacteria by teixobactin analogues 12 and 13 Time-kill kinetics against MRSA DM21455 strains (clinical isolates from patients) was carried out in MHB. Cultures were grown overnight in MHA plates and adjusted to a final inoculum of 10^5 – 10^6 CFU/ml in MHB (containing 0.002% v/v, polysorbate 80) with teixobactin analogues 12 and 13 maintained at a final concentration of 0.5 µg/ml. For vancomycin, the concentration was varied from 0.5 – 16 µg/ml without polysorbate 80. The tubes were then incubated at 37 °C. 100 µl of cell suspension was withdrawn at various time points (0, 2, 4, 8, 24 h), serially diluted (101-105 fold dilutions) and plated onto a MHA plates and incubated for 24 h at 37 °C.
Colonies were then enumerated […]. Colony counting too numerous to count (>300 colonies) was taken as 1010 CFU. Average values from two independent experiments are reported. […]
as §11

[5] = Enterococcus, 24 h, read-out: MIC (with polysorbate 80)
[6] = Enterococcus, 24 h, read-out: MIC (without polysorbate 80)
[7] = Staphylococcus aureus, MRSA, 24 h
[8] = Staphylococcus aureus, MRSA, 24 h, read-out: MIC (with polysorbate 80)
[9] = Staphylococcus aureus, MRSA, 24 h, read-out: MIC (without polysorbate 80)

CC[C@H](C)[C@H](NC(=O)[C@@H](Cc1ccccc1)NC)C(=O)N[C@@H](CO)C(=O)N[C@H](CCC(N)=O)C(=O)N[C@@H](C(=O)N[C@H](C(=O)N[C@@H](CO)C(=O)N[C@H]1C(=O)N[C@@H](C)C(=O)N[C@@H](CCCNC(=N)N)C(=O)N[C@@H]([C@@H](C)CC)C(=O)O[C@H]1C)[C@@H](C)CC)[C@@H](C)CC [Compound 16, Arg10-teixobactin]
MIC (without polysorbate 80) (VRE 2: VRE ATCC 29212; ATCC 29212, 24 h): 4 µg/mL (≈ 3.21 µM) | MIC (VRE 2: VRE ATCC 29212; VRE 2 (Enterococcus faecalis VRE ATCC 29212), Mueller Hinton broth (Table 2)): 2 μg mL^–1 | MIC (with polysorbate 80) (VRE 2: VRE ATCC 29212; VRE 2, MHB containing polysorbate 80 (0.002%, v/v), 37 °C, 24 h): 2 µg/mL (≈ 1.61 µM) | MIC (without polysorbate 80) (VRE 1: VRE ATCC 700802; ATCC 700802, 24 h): 4 µg/mL (≈ 3.21 µM) | MIC (VRE 1: VRE ATCC 700802; VRE 1 (Enterococcus faecalis VRE ATCC 700802), Mueller Hinton broth (Table 2)): 2 μg mL^–1 | MIC (with polysorbate 80) (VRE 1: VRE ATCC 700802; VRE 1, MHB containing polysorbate 80 (0.002%, v/v), 37 °C, 24 h): 2 µg/mL (≈ 1.61 µM) | MIC (MRSA ATCC 33591; MRSA ATCC 33591, Mueller Hinton broth (Oxoid), peptides in DMSO containing 0.002% polysorbate 80, 37°C, triplicate): 2 μg mL^–1 | MIC (without polysorbate 80) ([1]; 2: DR 42412 (sputum, 24 h)): 2 µg/mL (≈ 1.61 µM) | MBC ([1]; MRSA 2 (MRSA DR 42412), plated on MHA, 37 °C, 24 h): 0.5 μg mL^–1 | MIC ([1]; MRSA 2 (MRSA DR 42412, sputum, clinical isolate), Mueller Hinton broth, 37 °C, 24 h (Table 2)): 0.125 μg mL^–1 | MIC (with polysorbate 80) ([1]; MRSA 2, MHB containing polysorbate 80 (0.002%, v/v), 37 °C, 24 h): 0.125 µg/mL (≈ 0.1 µM) | lipid II spot on TLC [2]: complete disappearance of the lipid II spot | MIC (M. smegmatis ATCC 607; M. smegmatis ATCC 607, Middlebrook 7H9 broth with 5% ADC, 37°C, 140RPM, reading after 72 hours): 1–2 μg mL^–1 | MIC (without polysorbate 80) ([3]; 3: DM21455 (eye, 24 h)): 4 µg/mL (≈ 3.21 µM) | MBC ([3]; MRSA 3 (MRSA DM21455), plated on MHA, 37 °C, 24 h): 1 μg mL^–1 | MIC ([3]; MRSA 3 (MRSA DM21455, eye, clinical isolate), Mueller Hinton broth, 37 °C, 24 h (Table 2)): 0.5 μg mL^–1 | MIC (with polysorbate 80) ([3]; MRSA 3, MHB containing polysorbate 80 (0.002%, v/v), 37 °C, 24 h): 0.5 µg/mL (≈ 0.402 µM) | MIC (without polysorbate 80) (MRSA 1: MRSA ATCC 700699; ATCC 700699, 24 h): 4 µg/mL (≈ 3.21 µM) | MIC (MRSA 1: MRSA ATCC 700699; MRSA 1 (MRSA ATCC 700699), Mueller Hinton broth, 37 °C, 24 h (Table 2)): 1 μg mL^–1 | MBC (MRSA 1: MRSA ATCC 700699; MRSA 1 (MRSA ATCC 700699), plated on MHA, 37 °C, 24 h): 2 μg mL^–1 | MIC (with polysorbate 80) (MRSA 1: MRSA ATCC 700699; MRSA 1, MHB containing polysorbate 80 (0.002%, v/v), 37 °C, 24 h, two independent duplicates): 1 µg/mL (≈ 0.804 µM) | MIC (without polysorbate 80) ([4]; ATCC 29213, 24 h): 2 µg/mL (≈ 1.61 µM) | MIC (with polysorbate 80) ([4]; S. aureus ATCC 29213, MHB containing polysorbate 80 (0.002%, v/v), 37 °C, 24 h): 0.25 µg/mL (≈ 0.201 µM) | MBC ([4]; Staphylococcus aureus ATCC 29213, plated on MHA, 37 °C, 24 h): 1 μg mL^–1

CN[C@H](CC(C)C)C(=O)N[C@H]1C(=O)N[C@@H](CC(N)=O)C(=O)N[C@H]2C(=O)N[C@H]3C(=O)N[C@H](C(=O)N[C@H](C(=O)O)c4cc(O)cc(O)c4-c4cc3ccc4O)[C@H](O)c3ccc(c(Cl)c3)Oc3cc2cc(c3O[C@@H]2O[C@H](CO)[C@@H](O)[C@H](O)[C@H]2O[C@H]2C[C@](C)(N)[C@H](O)[C@H](C)O2)Oc2ccc(cc2Cl)[C@H]1O [Compound 18, Vancomycin, reference compound]
time-kill outcome (MRSA DM21455; 0.5 μg mL^–1, 37 °C): substantial growth was observed | concentration needed for similar effects as teixobactin analogues 12 & 13 in time-kill (MRSA DM21455; MRSA 21455): 8 μg mL^–1 | MIC (VRE 2: VRE ATCC 29212): > 4 µg/mL | MIC (VRE 2: VRE ATCC 29212; [5]): > 4 µg/mL | MIC (VRE 2: VRE ATCC 29212; [6]): > 4 µg/mL | MIC (VRE 1: VRE ATCC 700802): > 4 µg/mL | MIC (VRE 1: VRE ATCC 700802; [5]): > 4 µg/mL | MIC (VRE 1: VRE ATCC 700802; [6]): > 4 µg/mL | MIC (MRSA ATCC 33591; Staphylococcus aureus): 2 µg/mL (≈ 1.38 µM) | MIC [1, 7]: 2 µg/mL (≈ 1.38 µM) | MIC [1, 8]: 1 µg/mL (≈ 0.69 µM) | MIC [1, 9]: 2 µg/mL (≈ 1.38 µM) | MIC (M. smegmatis ATCC 607; Mycolicibacterium smegmatis, ATCC607, 72 h): > 64 µg/mL | MIC [3, 7]: 2 µg/mL (≈ 1.38 µM) | MIC [3, 8]: 1 µg/mL (≈ 0.69 µM) | MIC [3, 9]: 2 µg/mL (≈ 1.38 µM) | MIC (MRSA 1: MRSA ATCC 700699; Staphylococcus aureus, 24 h): 2 µg/mL (≈ 1.38 µM) | MIC (MRSA 1: MRSA ATCC 700699; Staphylococcus aureus, ATCC700699|MRSA, 24 h, read-out: MIC (with polysorbate 80)): 1 µg/mL (≈ 0.69 µM) | MIC (MRSA 1: MRSA ATCC 700699; Staphylococcus aureus, ATCC700699|MRSA, 24 h, read-out: MIC (without polysorbate 80)): 2 µg/mL (≈ 1.38 µM) | MIC ([4]; ATCC29213, 24 h, read-out: MIC (with polysorbate 80)): 2 µg/mL (≈ 1.38 µM) | MIC ([4]; ATCC29213, 24 h, read-out: MIC (without polysorbate 80)): 4 µg/mL (≈ 2.76 µM) | MIC ([4]; ATCC29213 / MSSA, 24 h): 4 µg/mL (≈ 2.76 µM)
